# Experimental data reported in patent US20150031674A1, “SERINE/THREONINE KINASE INHIBITORS” (GENENTECH, INC., priority 2013, published 2015).
# Target: human recombinant PAK1-KD protein (Homo sapiens, UniProt Q13153)
# Experiment: PAK1-KD (Kinase Domain) IC50 Zlyte Assay (FRET peptide substrate phosphorylation)
# Conditions: Z'-LYTE, Biological Example 1
# From the text: PAK1-KD (Kinase Domain) IC50 Zlyte Assay Protocol
# Activity of human recombinant PAK1-KD protein may be assessed in vitro by assay of the phosphorylation of a FRET peptide substrate. Catalytically active human recombinant PAK1-KD protein is obtained by purification from Tini cells infected with a human PAK1-KD recombinant baculovirus expression vector.
# The activity/inhibition of PAK1-KD was estimated by measuring the phosphorylation of a FRET peptide substrate (Ser/Thr19) labeled with Coumarin and Fluorescein using Z′-LYTE™ assay (Invitrogen). The peptide substrate is a consensus sequence ([sequence]) based on various PAK substrates reported in the scientific literature. […] Incubations were carried out at 22° C. in black polypropylene 384-well plates (Corning Costar).
# Sequence of human recombinant PAK1-KD protein (Q13153 270-521 limits assumed): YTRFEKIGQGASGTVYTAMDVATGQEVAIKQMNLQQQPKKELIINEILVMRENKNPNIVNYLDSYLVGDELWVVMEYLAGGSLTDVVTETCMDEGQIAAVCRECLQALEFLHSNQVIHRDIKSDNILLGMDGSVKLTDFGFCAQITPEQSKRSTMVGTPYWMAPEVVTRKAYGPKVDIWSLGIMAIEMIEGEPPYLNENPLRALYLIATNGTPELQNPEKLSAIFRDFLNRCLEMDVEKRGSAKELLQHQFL
row,Ki,SMILES
1,123 nM,"CNc1ncc2cc(-c3ccc(-c4cncc(C)n4)cc3Cl)c(=O)n(CC(=O)N(C)C)c2n1 [Example I-86, 2-[6-[2-Chloro-4-(6-methylpyrazin-2-yl)phenyl]-2-(methylamino)-7-oxo-pyrido[2,3-d]pyrimidin-8-yl]-N,N-dimethyl-acetamide]"
2,31.6 nM,"CNc1ncc2cc(-c3ccc(-c4cccc(C)n4)cc3Cl)c(=O)n(CC3CNCCS3(=O)=O)c2n1 (single isomer, unassigned) [I-197 Isomer B, 6-[2-chloro-4-(6-methyl-2-pyridyl)phenyl]-8-[(1,1-dioxo-1 4-thiazinan-2-yl)methyl]-2-(methylamino)pyrido[2,3-d]pyrimidin-7-one]"
3,39.2 nM,"CNc1ncc2cc(-c3ccc(-c4cncc(C)n4)cc3Cl)c(=O)n(CC(=O)N3C[C@@H]4C[C@H]3CN4)c2n1 [Example I-155, 6-[2-Chloro-4-(6-methylpyrazin-2-yl)phenyl]-8-[2-[(1S,4S)-2 5-diazabicyclo[2.2.1]heptan-2-yl]-2-oxo-ethyl]-2-(methylamino)pyrido[2,3-d]pyrimidin-7-one]"
4,11.3 nM,"Cc1cccc(-c2ccc(-c3cc4cnc(NC5COC5)nc4n(CCCC(N)=O)c3=O)c(C)c2)n1 [Example I-71, 4-[6-[2-Methyl-4-(6-methyl-2-pyridyl)phenyl]-2-(oxetan-3-ylamino)-7-oxo-pyrido[2,3-d]pyrimidin-8-yl]butanamide]"
5,14 nM,"CNc1ncc2cc(-c3ccc(-c4cncc(C)n4)cc3Cl)c(=O)n(CC(=O)N[C@H]3CCNC3)c2n1 [Example I-142, 2-[6-[2-chloro-4-(6-methylpyrazin-2-yl)phenyl]-2-(methylamino)-7-oxo-pyrido[2,3-d]pyrimidin-8-yl]-N-[(3S)-pyrrolidin-3-yl]acetamide]"
6,17.1 nM,"CCNc1ncc2cc(-c3ccc(-c4cncc(C)n4)cc3Cl)c(=O)n(C3CCN(C(=O)CN)CC3)c2n1 [Example I-29, 8-(1-(2-Aminoacetyl)piperidin-4-yl)-6-(2-chloro-4-(6-methylpyrazin-2-yl)phenyl)-2-(ethylamino)pyrido[2,3-d]pyrimidin-7(8H)-one]"
7,7.3 nM,"CNc1ncc2cc(-c3ccc(-c4cccc(C)n4)cc3C)c(=O)n(C[C@H]3CNCCO3)c2n1 [Example I-148, 2-(Methylamino)-6-[2-methyl-4-(6-methyl-2-pyridyl)phenyl]-8-[[(2R)-morpholin-2-yl]methyl]pyrido[2,3-d]pyrimidin-7-one]"
8,29.8 nM,"Cc1cncc(-c2ccc(-c3cc4cnc(NC5COC5)nc4n(CCCC(N)=O)c3=O)c(Cl)c2)n1 [Example I-55, 4-[6-[2-Chloro-4-(6-methylpyrazin-2-yl)phenyl]-2-(oxetan-3-ylamino)-7-oxo-pyrido[2,3-d]pyrimidin-8-yl]butanamide]"
9,4.1 nM,"CCNc1ncc2cc(-c3ccc(-c4cncc(C)n4)cc3Cl)c(=O)n(CCC3CCNC3)c2n1 (centres unmarked) [Example I-57, 6-(2-Chloro-4-(6-methylpyrazin-2-yl)phenyl)-2-(ethylamino)-8-(2-(pyrrolidin-3-yl)ethyl)pyrido[2,3-d]pyrimidin-7(8H)-one]"
10,20.4 nM,"CCNc1ncc2cc(-c3ccc(-c4cncc(C)n4)cc3Cl)c(=O)n(CCC3CCCN3)c2n1 (single isomer, unassigned) [Example I-20]"
11,4 nM,"CCNc1ncc2cc(-c3ccc(-c4cccc(C)n4)cc3Cl)c(=O)n(CC(=O)N3CCNCC3)c2n1 [Example I-34, 6-[2-Chloro-4-(6-methyl-2-pyridyl)phenyl]-2-(ethylamino)-8-(2-oxo-2-piperazin-1-yl-ethyl)pyrido[2,3-d]pyrimidin-7-one]"
12,14.5 nM,"CNc1ncc2cc(-c3ccc(-c4cccc(C)n4)cc3C)c(=O)n(CCCO)c2n1 [Example I-132, 8-(3-hydroxypropyl)-2-(methylamino)-6-[2-methyl-4-(6-methyl-2-pyridyl)phenyl]pyrido[2,3-d]pyrimidin-7-one]"
13,15.7 nM,"Cc1cccc(-c2ccc(-c3cc4cnc(NC5COC5)nc4n(CCCO)c3=O)c(C)c2)n1 [Example I-168, 8-(3-hydroxypropyl)-6-[2-methyl-4-(6-methyl-2-pyridyl)phenyl]-2-(oxetan-3-ylamino)pyrido[2,3-d]pyrimidin-7-one]"
14,12.9 nM,"CNc1ncc2cc(-c3ccc(-c4cccc(C)n4)cc3Cl)c(=O)n(C[C@@H]3CNCCO3)c2n1 [Example I-173, 6-[2-chloro-4-(6-methyl-2-pyridyl)phenyl]-2-(methylamino)-8-[[(2S)-morpholin-2-yl]methyl]pyrido[2,3-d]pyrimidin-7-one]"
15,35.4 nM,"CNc1ncc2cc(-c3ccc(-c4cccc(CO)n4)cc3Cl)c(=O)n(C[C@@H]3CNCCO3)c2n1 [Example I-195, 6-[2-Chloro-4-[6-(hydroxymethyl)-2-pyridyl]phenyl]-2-(methylamino)-8-[[(2S)-morpholin-2-yl]methyl]pyrido[2,3-d]pyrimidin-7-one]"
16,52.2 nM,"CCNc1ncc2cc(-c3ccc(-c4cncc(C)n4)cc3Cl)c(=O)n(CCN3CCNC(=O)C3)c2n1 [Example I-130, 6-[2-chloro-4-(6-methylpyrazin-2-yl)phenyl]-2-(ethylamino)-8-[2-(3-oxopiperazin-1-yl)ethyl]pyrido[2,3-d]pyrimidin-7-one]"
17,26.8 nM,"CNc1ncc2cc(-c3ccc(-c4cccc(C)n4)cc3Cl)c(=O)n(C[C@@H]3CN(C)CCO3)c2n1 [Example I-183, 6-[2-chloro-4-(6-methyl-2-pyridyl)phenyl]-2-(methylamino)-8-[[(2S)-4-methylmorpholin-2-yl]methyl]pyrido[2,3-d]pyrimidin-7-one]"
18,1 nM,"CCNc1ncc2cc(-c3ccc(-c4cccc(C)n4)cc3C)c(=O)n(CCC3CNCCO3)c2n1 (single isomer, unassigned) [Example I-112, 2-(Ethylamino)-6-(2-methyl-4-(6-methylpyridin-2-yl)phenyl)-8-(2-(morpholin-2-yl)ethyl)pyrido[2,3-d]pyrimidin-7(8H)-one]"
19,9.6 nM,"CCNc1ncc2cc(-c3ccc(-c4cncc(C)n4)cc3Cl)c(=O)n(C[C@H]3[C@@H]4CNC[C@@H]43)c2n1 [Example I-82, 8-((1R,5S,6R)-3-Azabicyclo[3.1.0]hexan-6-ylmethyl)-6-(2-chloro-4-(6-methylpyrazin-2-yl)phenyl)-2-(ethylamino)pyrido[2,3-d]pyrimidin-7(8H)-one]"
20,9.8 nM,"CCNc1ncc2cc(-c3ccc(-c4cncc(C)n4)cc3Cl)c(=O)n(CCC3CNCCO3)c2n1 (single isomer, unassigned) [Example I-21]"
21,9.9 nM,"CCNc1ncc2cc(-c3ccc(-c4cccc(C)n4)cc3Cl)c(=O)n(CCOC3CNC3)c2n1 [Example I-30, 8-[2-(azetidin-3-yloxy)ethyl]-6-[2-chloro-4-(6-methyl-2-pyridyl)phenyl]-2-(ethylamino)pyrido[2,3-d]pyrimidin-7-one]"
22,12.5 nM,"CNc1ncc2cc(-c3ccc(-c4cncc(C)n4)cc3Cl)c(=O)n(CC(=O)N3CC[C@H](N)C3)c2n1 [Example I-143, 8-[2-[(3S)-3-Aminopyrrolidin-1-yl]-2-oxo-ethyl]-6-[2-chloro-4-(6-methylpyrazin-2-yl)phenyl]-2-(methylamino)pyrido[2,3-d]pyrimidin-7-one]"
23,313 nM,"Cc1cncc(-c2ccc(-c3cc4cnc(N)nc4n(CCCCCN)c3=O)c(Cl)c2)n1 [Example I-88, 2-Amino-8-(5-aminopentyl)-6-[2-chloro-4-(6-methylpyrazin-2-yl)phenyl]pyrido[2,3-d]pyrimidin-7-one]"
